Measurements from patent publication US4402975A, “Aminocarboxylic acids, amino alcohols, or the derivatives thereof, processes for production thereof, and pharmaceutical uses thereof” (Teijin Limited, priority 1980, dated 1983).
Counter-ions that a name gives are not always drawn.

Assays:
gastric secretion = test: Inhibitory activity on gastric secretion (pylorus ligation); format: in vivo, male rats; conditions: for Amount of gastric juice: 4 hours after pylorus ligation, control 6.8 ± 0.6, in ml (unit assumed); for Acidity: control 109.1 ± 1.7
Procedure: Seven week-old DS-strain male rats (body weight 200 to 220 g) were fasted for 24 hours but water was provided freely, and then used in the following experiment.
The rats were anesthetized with ether. The abdomen was cut open along the median line to expose the pylorus. Then, the pylorus was ligated. After ligation, each of the test compounds dissolved in physiological saline was intraperitoneally administered to the animals. The abdomen was sutured, and after confirming that the animals recovered from ether anesthesia, they were kept in a wire cage while being deprived of food and water. Four hours later, the animals were killed by using ether. The abdomen was again cut open, and the stomach was removed. The gastric juice was collected, and its volume and acidity was measured. The acidity of the gastric juice was determined by titrating with 0.05 N sodium hydroxide using phenolphthalein as an indicator, and calculating the amount of sodium hydroxide required to neutralize the gastric juice which is estimated as the acidity of the gastric juice.
(§1) The control group was given physiological saline alone.
For the method of studying the inhibitory activity on the gastiic secretion, reference may be made to H. Shay, S. A. Komoroe, S. S. Fels, M. Meraze, M. Gruestein and H. Siplet: Gastroent., 5, 43 (1945), and M. L. Anson: J. Gen, Physiol., 21, 79 (1938).

[1] = tested on: blood flow in the gastric mucosa; test: Increasing activity on the blood flow in the dog gastric mucosa; format: in vivo, Male Beagle dogs; conditions: anesthetized dogs, cross thermocouple method
Procedure: Male Beagle dogs (10 to 15 kg) were anesthetized by intravenously administering sodium pentobarbital in a dose of 35 mg/kg, and used in the following experiment.
The blood flow in the gastric mucosa was measured by a cross thermocouple method. The abdomen was cut open along the median line to expose the stomach. A wire-type cross thermocouple element was inserted behind the mucosa on the glandular stomach. The blood flow measured by the cross thermocouple element was recorded continuously in a recorder. For the method of measuring the blood flow, reference may be made to a Japanese-language publication "Blood Flow Measurement", page 105, 1974 Igakushoin, edited by Okinaka, Hori and Honda.

serotonin ulcer = test: Inhibitory activity on serotonin ulcer; format: in vivo, SD-strain male rats; conditions: 30 min before serotonin 20 mg/kg s.c., rats
Procedure: Seven week-old SD-strain male rats (body weight 200 to 220 g) were fasted for 24 hours but water was provided freely, and then used in the following experiment. Each of the test compounds suspended in 0.5% CMC was administered to the rats either orally or intraperitoneally, and 30 minutes later, serotonin (serotonin creatinine sulfate) was subcutaneously administered to the rats in a dose of 20 mg/kg. Four hours later, the animals were sacrificed. The abdomen was cut open, and the stomach was taken out from each animal. 12 ml of 1% formalin was injected into the stomach to inflate it, and the stomach was further dipped for about 10 minutes in 1% formalin for fixation. Then, the stomach was cut open on the side of the lesser curvature, and spread on a glass plate. The area of ulcers generated in the glandular stomach was measured by using a solid microscope. The sum of the area of ulcer for each animal was used as the ulcer index. The ulcer inhibiting ratio of the test compound was calculated in accordance with the following equation. [formula] The control group was given 0.5% CMC and serotonin alone.

Shay ulcer = test: Inhibitory activity on Shay ulcer (pylorus ligation); format: in vivo, SD-strain male rats; conditions: 300 mg/kg i.p.
Procedure: Seven week-old SD-strain male rats (body weight 200 to 220 g) were fasted for 24 hours but water was provided freely, and then used in the experiment.
The rats were anesthetized with ether. The abdomen was cut open along the median line to expose the pylorus. Then, the pylorus was ligated. After the ligation, each of the test compounds, dissolved in physiological saline, was administered intraperitoneally to the rats. The abdomen was sutured. After confirming that the animals recovered from ether anesthesia, they were kept in a wire cage while being deprived of food and water. Seventeen hours later, the animals were killed by using ether. The abdomen was again cut open, and the stomach was removed. The stomach was cut open, and the area of ulcers generated in the fundus was measured by using a solid microscope, and scored as tabulated below to obtain ulcer indices. […]
as §1
For the measurement of the Shay ulcer inhibiting activity, reference may be made to H. Shay, S. A. Komoroe, S. S. Fels, M. Meraze, M. Gruestein, and H. Siplet: Gastroent., 5, 43 (1945).

indomethacin ulcer = test: Inhibitory activity on indomethacin ulcer; format: in vivo, SD-strain male rats; conditions: 200 mg/kg oral, 30 min before indomethacin 20 mg/kg oral, rats
Procedure: Seven week-old SD-strain male rats (body weight 200 to 220 g) were fasted for 24 hours but water was provided freely, and then used in the following experiment.
Each of the test compounds suspended in 0.5% CMC was orally administered to the rats, and 30 minutes later, indomethacin was orally administered in a dose of 20 mg/kg. Six hours later, the animals were sacrificed. The abdomen was cut open, and the stomach was removed. 1% Evan's blue was injected in an amount of 0.5 ml/rat into the rats through the tail vein under ether anesthesia 10 minutes before sacrificing.
12 ml of a 1% formalin was injected into the stomach and the stomach was further dipped in 1% formalin for about 10 minutes for the fixation. The stomach was cut open on the side of the greater curvature, and spread on a glass plate. The lengths of ulcers generated in the glandular stomach were measured by using a solid microscope. The sum of the lengths of the ulcers for each animal was used as the ulcer index. The ulcer inhibiting ratio of the test compound was calculated in accordance with the following equation. [formula]
The control group was given 0.5% CMC and indomethacin alone.

plasmin = target: T1, plasmin (Homo sapiens, UniProt P00747); test: Antiplasmin activity (clot lysis time, fibrinogen/urokinase/thrombin); format: biochemical; conditions: first series, control 391.7 ± 16.1
T1 construct: fibrin clot lysis, native
T1 sequence (P00747 97-810): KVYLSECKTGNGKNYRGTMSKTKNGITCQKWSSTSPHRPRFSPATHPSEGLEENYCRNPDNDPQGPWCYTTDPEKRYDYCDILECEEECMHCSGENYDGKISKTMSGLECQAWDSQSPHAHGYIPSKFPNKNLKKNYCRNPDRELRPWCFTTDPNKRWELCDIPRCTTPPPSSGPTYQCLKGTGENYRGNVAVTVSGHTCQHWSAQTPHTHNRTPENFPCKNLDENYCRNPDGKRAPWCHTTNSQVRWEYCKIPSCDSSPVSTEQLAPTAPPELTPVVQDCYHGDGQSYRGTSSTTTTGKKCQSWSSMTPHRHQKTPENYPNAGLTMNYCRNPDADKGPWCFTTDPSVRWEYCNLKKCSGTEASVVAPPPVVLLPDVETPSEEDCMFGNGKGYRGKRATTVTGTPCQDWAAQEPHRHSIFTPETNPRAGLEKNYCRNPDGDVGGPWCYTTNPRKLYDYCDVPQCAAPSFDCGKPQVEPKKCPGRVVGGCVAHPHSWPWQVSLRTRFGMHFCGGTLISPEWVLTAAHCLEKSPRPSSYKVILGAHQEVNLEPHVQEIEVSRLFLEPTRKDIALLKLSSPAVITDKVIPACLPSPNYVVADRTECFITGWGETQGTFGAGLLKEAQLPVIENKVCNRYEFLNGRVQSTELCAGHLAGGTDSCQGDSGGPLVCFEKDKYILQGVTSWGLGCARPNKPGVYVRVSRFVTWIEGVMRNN
Procedure: Human fibrinogen was dissolved in a phosphate-buffered physiological saline (PBS) at a pH of 7.4 to prepare a 0.2% solution. Urokinase and thrombin were dissolved similarly in PBS to prepare a solution containing 120 units of urokinase and 50 units of thrombin per ml. […] Then, 0.1 ml of the urokinase-thrombin mixed solution was added, and a microchronometer was started. One minute after the starting of the microchronometer, a glass ball having a diameter of 8 mm was put on the coagulated surface, and the incubation was continued. The time which elapsed from the dissolution of the coagulated mass until the glass ball dropped onto the bottom of the test tube was measured. As a control, PBS alone was added.

SMILES: NC[C@H]1CC[C@H](C(=O)c2ccc(CCC(=O)O)cc2)CC1 [3-[p-trans-4-aminomethylcyclohexylcarbonyl)phenyl]-propionic acid hydrochloride]
- Inhibition ratio (acidity) (gastric secretion; 50 mg/kg i.p.): 17.5%
- Inhibition ratio (amount of gastric juice) (gastric secretion; 50 mg/kg i.p.): 41.7%
- Amount of gastric juice (gastric secretion; 50 mg/kg i.p.): 4.8 ± 0.8
- Acidity (gastric secretion; 50 mg/kg i.p.): 90.0 ± 4.5 μeq./ml
- Inhibition ratio (acidity) (gastric secretion; 100 mg/kg i.p.): 31.8%
- Inhibition ratio (amount of gastric juice) (gastric secretion; 100 mg/kg i.p.): 54.4%
- Amount of gastric juice (gastric secretion; 100 mg/kg i.p.): 3.1 ± 0.7
- Acidity (gastric secretion; 100 mg/kg i.p.): 74.1 ± 6.1 μeq./ml
- Inhibition ratio (acidity) (gastric secretion; 200 mg/kg i.p.): 70.1%
- Inhibition ratio (amount of gastric juice) (gastric secretion; 200 mg/kg i.p.): 89.4%
- Amount of gastric juice (gastric secretion; 200 mg/kg i.p.): 0.7 ± 0.1
- Acidity (gastric secretion; 200 mg/kg i.p.): 32.6 ± 2.6 μeq./ml
- Increase in the gastric mucosal blood flow ([1]; 2 mg/kg i.v.): weak increase
- Increase in the gastric mucosal blood flow ([1]; 5 mg/kg i.v.): remarkable
- Ulcer inhibiting ratio (serotonin ulcer; 30 mg/kg oral): 34.0%
- Ulcer inhibiting ratio (serotonin ulcer; 100 mg/kg oral): 76.7%
- Inhibition ratio (Shay ulcer; Shay ulcer, rats): 43.5%
- Ratio of perforation (Shay ulcer; Shay ulcer, rats, control 80): 20%
- Ulcer index (Shay ulcer; score 0-5 by ulcer area, 17 hours after pylorus ligation, control 4.6 ± 0.4): 2.6 ± 0.8
- Ulcer inhibiting ratio (indomethacin ulcer): 62.2%
- Clot lysis time (plasmin; 10^-3 M): 980.0 s
- Clot lysis time (plasmin; 10^-4 M): 561.2 s
- Clot lysis time (plasmin; 10^-5 M): 413.9 s
